Where “and” joins values, the source holds several entries; their conditions need not be identical. Equal values may be shown once.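 Exposure lasted 48 hours, with cells grown in 96-well plates and compounds tested at five concentrations. At the GI50, growth is halved. TGI is the concentration that stops growth completely.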
Experiments:
Assay in all cases: NCI anticancer screen, dose series, 48 h
HCT-15 colon = tested on: HCT-15 colon
OVCAR-5 ovarian = tested on: OVCAR-5 ovarian
SN12C renal = tested on: SN12C renal
SK-MEL-2 melanoma = tested on: SK-MEL-2 melanoma
DU-145 prostate = tested on: DU-145 prostate
NCI-H460 lung = tested on: NCI-H460 lung
OVCAR-4 ovarian = tested on: OVCAR-4 ovarian
SK-MEL-5 melanoma = tested on: SK-MEL-5 melanoma
HCC-2998 colon = tested on: HCC-2998 colon
HL-60(TB) leukemia = tested on: HL-60(TB) leukemia

SMILES: O=C(Nc1nc2ccccc2s1)OCC(F)(F)F
- GI50 (HCT-15 colon): > 100 µM
- TGI (HCT-15 colon): > 100 µM
- GI50 (OVCAR-5 ovarian): > 100 µM
- TGI (OVCAR-5 ovarian): > 100 µM
- GI50 (SN12C renal): > 100 µM
- TGI (SN12C renal): > 100 µM
- GI50 (SK-MEL-2 melanoma): > 100 µM
- TGI (SK-MEL-2 melanoma): > 100 µM
- GI50 (DU-145 prostate): > 100 µM
- TGI (DU-145 prostate): > 100 µM
- GI50 (NCI-H460 lung): > 100 µM
- TGI (NCI-H460 lung): > 100 µM
- GI50 (OVCAR-4 ovarian): > 100 µM
- TGI (OVCAR-4 ovarian): > 100 µM
- GI50 (SK-MEL-5 melanoma): > 100 µM
- TGI (SK-MEL-5 melanoma): > 100 µM
- GI50 (HCC-2998 colon): > 100 µM
- TGI (HCC-2998 colon): > 100 µM
- GI50 (HL-60(TB) leukemia): > 100 µM
- TGI (HL-60(TB) leukemia): > 100 µM

SMILES: Clc1ccccc1C(c1ccccc1)(c1ccccc1)n1ccnc1
- GI50 (HCT-15 colon): 2.58 µM
- TGI (HCT-15 colon): 12.5 µM and 22.7 µM
- GI50 (OVCAR-5 ovarian): 4.05 µM
- TGI (OVCAR-5 ovarian): 15.5 µM and 29.8 µM
- GI50 (SN12C renal): 2.63 µM
- TGI (SN12C renal): 13.3 µM
- GI50 (SK-MEL-2 melanoma): 2.66 µM
- TGI (SK-MEL-2 melanoma): 7.22 µM and 29.3 µM
- GI50 (DU-145 prostate): 4.87 µM
- TGI (DU-145 prostate): 17.2 µM and 39.6 µM
- GI50 (NCI-H460 lung): 2.9 µM
- TGI (NCI-H460 lung): 9.53 µM and 29.8 µM
- GI50 (OVCAR-4 ovarian): 2.95 µM
- TGI (OVCAR-4 ovarian): 15.5 µM and 41.3 µM
- GI50 (SK-MEL-5 melanoma): 2.61 µM
- TGI (SK-MEL-5 melanoma): 10.4 µM and 22.3 µM
- GI50 (HCC-2998 colon): 3.3 µM
- TGI (HCC-2998 colon): 12.7 µM and 31 µM
- GI50 (HL-60(TB) leukemia): 1.72 µM
- TGI (HL-60(TB) leukemia): 5.21 µM

SMILES: CN(C)CC(=O)N1CCC(c2ccc(NC(=O)c3ncc(C#N)[nH]3)c(C3=CCCCC3)c2)CC1
- GI50 (HCT-15 colon): 2.71 µM
- TGI (HCT-15 colon): 9.22 µM
- GI50 (OVCAR-5 ovarian): 10.8 µM
- TGI (OVCAR-5 ovarian): 25.2 µM
- GI50 (SN12C renal): 2.74 µM
- TGI (SN12C renal): 16.9 µM
- GI50 (SK-MEL-2 melanoma): 6.83 µM
- TGI (SK-MEL-2 melanoma): 20.3 µM
- GI50 (DU-145 prostate): 12 µM
- TGI (DU-145 prostate): 24.6 µM
- GI50 (NCI-H460 lung): 7.83 µM
- TGI (NCI-H460 lung): 23.4 µM
- GI50 (OVCAR-4 ovarian): 10.1 µM
- TGI (OVCAR-4 ovarian): 23 µM
- GI50 (SK-MEL-5 melanoma): 3.5 µM
- TGI (SK-MEL-5 melanoma): 13.4 µM
- GI50 (HCC-2998 colon): 5.74 µM
- TGI (HCC-2998 colon): 19 µM
- GI50 (HL-60(TB) leukemia): 2.99 µM
- TGI (HL-60(TB) leukemia): 8.86 µM

SMILES: O=C(Nc1cccc(-n2ccc3c(NC(=O)c4ccccc4)nccc32)c1)c1cccc(C(F)(F)F)c1
- GI50 (HCT-15 colon): 0.0357 µM
- GI50 (OVCAR-5 ovarian): 0.239 µM
- TGI (OVCAR-5 ovarian): > 100 µM
- GI50 (SN12C renal): 0.0591 µM
- TGI (SN12C renal): > 59.3 µM
- GI50 (SK-MEL-2 melanoma): 0.0547 µM
- TGI (SK-MEL-2 melanoma): 14.3 µM
- GI50 (DU-145 prostate): 0.0363 µM
- TGI (DU-145 prostate): 0.168 µM
- GI50 (NCI-H460 lung): 0.0354 µM
- TGI (NCI-H460 lung): 1.22 µM
- GI50 (OVCAR-4 ovarian): 0.104 µM
- TGI (OVCAR-4 ovarian): > 67.7 µM
- GI50 (SK-MEL-5 melanoma): 0.0341 µM
- TGI (SK-MEL-5 melanoma): 0.152 µM
- GI50 (HCC-2998 colon): 0.0362 µM
- TGI (HCC-2998 colon): > 66.3 µM
- GI50 (HL-60(TB) leukemia): 0.0343 µM
- TGI (HL-60(TB) leukemia): 0.653 µM

SMILES: CCn1c(-c2nonc2N)nc2c(C#CCN)ncc(OCCCN)c21
- GI50 (HCT-15 colon): > 25 µM
- TGI (HCT-15 colon): > 25 µM
- GI50 (OVCAR-5 ovarian): > 25 µM
- TGI (OVCAR-5 ovarian): > 25 µM
- GI50 (SN12C renal): > 25 µM
- TGI (SN12C renal): > 25 µM
- GI50 (SK-MEL-2 melanoma): > 25 µM
- TGI (SK-MEL-2 melanoma): > 25 µM
- GI50 (DU-145 prostate): > 25 µM
- TGI (DU-145 prostate): > 25 µM
- GI50 (NCI-H460 lung): > 25 µM
- TGI (NCI-H460 lung): > 25 µM
- GI50 (OVCAR-4 ovarian): > 25 µM
- TGI (OVCAR-4 ovarian): > 25 µM
- GI50 (SK-MEL-5 melanoma): > 25 µM
- TGI (SK-MEL-5 melanoma): > 25 µM
- GI50 (HCC-2998 colon): > 25 µM
- TGI (HCC-2998 colon): > 25 µM
- GI50 (HL-60(TB) leukemia): > 25 µM
- TGI (HL-60(TB) leukemia): > 25 µM

SMILES: Brc1cccc(-c2cc(-c3ccc4c(c3)OCCO4)[nH]n2)c1
- GI50 (HCT-15 colon): 0.731 µM
- TGI (HCT-15 colon): 30.6 µM
- GI50 (OVCAR-5 ovarian): 3.69 µM
- TGI (OVCAR-5 ovarian): 35.4 µM
- GI50 (SN12C renal): 1.47 µM
- TGI (SN12C renal): 36.8 µM
- GI50 (SK-MEL-2 melanoma): 1.74 µM
- TGI (SK-MEL-2 melanoma): 69.2 µM
- GI50 (DU-145 prostate): 1.98 µM
- TGI (DU-145 prostate): 27 µM
- GI50 (NCI-H460 lung): 0.877 µM
- TGI (NCI-H460 lung): 6.07 µM
- GI50 (OVCAR-4 ovarian): 7.79 µM
- TGI (OVCAR-4 ovarian): 48.5 µM
- GI50 (SK-MEL-5 melanoma): 1.17 µM
- TGI (SK-MEL-5 melanoma): 30.3 µM
- GI50 (HCC-2998 colon): 3.92 µM
- TGI (HCC-2998 colon): 33.4 µM
- GI50 (HL-60(TB) leukemia): 0.891 µM
- TGI (HL-60(TB) leukemia): 17.5 µM
